# US20020183518A1, “Modulators of proteins with phosphotyrosine recognition units” (ONTOGEN CORPORATION, priority 1995, published 2002)
# Key:
# CD45 = biological target: T1, CD45 (Homo sapiens, UniProt P08575); assay: In vitro PTPase inhibition assay (pNPP, colorimetric), CD45; assay type: biochemical; conditions: Table 9; read-out: IC50 values against CD45
# T1 construct: The PCR reaction product (2127 bp) was digested with Sma I (New England Biolabs, Beverly Mass.) to yield a 2110 bp product; made in house; host or cells: E. coli DH5α, plasmid pET24C-CD45
# T1 sequence (P08575 599-1306 limits assumed): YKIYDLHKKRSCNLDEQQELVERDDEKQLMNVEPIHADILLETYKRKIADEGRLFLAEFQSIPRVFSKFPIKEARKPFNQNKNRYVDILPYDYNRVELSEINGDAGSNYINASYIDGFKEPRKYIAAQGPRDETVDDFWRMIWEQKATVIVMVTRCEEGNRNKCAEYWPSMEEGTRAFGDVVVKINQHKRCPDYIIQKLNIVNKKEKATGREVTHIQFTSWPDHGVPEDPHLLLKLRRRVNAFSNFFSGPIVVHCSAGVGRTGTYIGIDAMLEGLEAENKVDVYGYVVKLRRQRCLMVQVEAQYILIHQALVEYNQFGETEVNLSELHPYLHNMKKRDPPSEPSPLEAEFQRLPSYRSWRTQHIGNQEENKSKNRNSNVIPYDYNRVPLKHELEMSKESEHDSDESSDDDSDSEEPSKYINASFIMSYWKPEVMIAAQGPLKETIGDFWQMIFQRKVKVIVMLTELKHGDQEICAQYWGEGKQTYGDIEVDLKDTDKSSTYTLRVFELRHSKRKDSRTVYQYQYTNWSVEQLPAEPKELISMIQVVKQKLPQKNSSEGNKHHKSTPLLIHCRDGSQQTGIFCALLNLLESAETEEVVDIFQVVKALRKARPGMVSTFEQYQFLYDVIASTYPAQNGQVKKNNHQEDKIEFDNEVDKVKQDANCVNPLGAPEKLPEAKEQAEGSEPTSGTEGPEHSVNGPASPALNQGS
# Protocol: CD45 enzymatic activity of samples was assayed in microtiter plates as follows. […] Louis Mo.), and 80 ul of activity assay buffer (100 mM sodium acetate, pH 6.0, 1 mM EDTA, 0.1% Triton X-100, 15 mM bME). Reactions were mixed gently and incubated at 37° C. for 60 minutes. […] To determine the enzymatic activity, absorbance readings of the reactions were measured at 405 nm using a Molecular Devices Thermomax Plate Reader (Menlo Park Calif.). […] Purified phosphatase was added to the reaction mixtures to begin the reactions; the reactions were incubated at 37° C. for 60 min. […] (for PTP-1C and PTPα assays), stopped, and colorimetrically analyzed as described above. […] First, absorbance readings from the negative control reactions were treated as a baseline and subtracted from the absorbance readings of the experimental reactions. Then, for each reaction, a percent inhibition was calculated using the following formula: […] For each inhibitor compound tested, an IC50 concentration was calculated from a best-fit computer analysis of the calculated percent inhibition for the various dilutions of the compound. CD45 enzymatic activity of samples was assayed in microtiter plates as follows. […] Louis Mo.), and 80 ul of activity assay buffer (100 mM sodium acetate, pH 6.0, 1 mM EDTA, 0. 1% Triton X-100, 15 mM bME). Reactions were mixed gently and incubated at 37° C. for 60 minutes. […] To determine the enzymatic activity, absorbance readings of the reactions were measured at 405 nm using a Molecular Devices Thermomax Plate Reader (Menlo Park Calif.). […] Purified phosphatase was added to the reaction mixtures to begin the reactions; the reactions were incubated at 37° C. for 60 min. […] (for PTP-1C and PTPα assays), stopped, and calorimetrically analyzed as described above. […] First, absorbance readings from the negative control reactions were treated as a baseline and subtracted from the absorbance readings of the experimental reactions. Then, for each reaction, a percent inhibition was calculated using the following formula: […] For each inhibitor compound tested, an IC50 concentration was calculated from a best-fit computer analysis of the calculated percent inhibition for the various dilutions of the compound.
# PTP-1B = biological target: T2, PTP-1B (Homo sapiens, UniProt P18031); assay: In vitro PTPase inhibition assay (pNPP, colorimetric), PTP-1B; assay type: biochemical; conditions: Table 9; read-out: IC50 values against PTP1B
# T2 construct: known to encode a 321 amino acid fragment containing the PTP-1B catalytic domain and having PTPase activity; made in house; host or cells: E. coli DH5α, plasmid pGEX-3X-PTP-1B
# T2 sequence (P18031 3-277 limits assumed): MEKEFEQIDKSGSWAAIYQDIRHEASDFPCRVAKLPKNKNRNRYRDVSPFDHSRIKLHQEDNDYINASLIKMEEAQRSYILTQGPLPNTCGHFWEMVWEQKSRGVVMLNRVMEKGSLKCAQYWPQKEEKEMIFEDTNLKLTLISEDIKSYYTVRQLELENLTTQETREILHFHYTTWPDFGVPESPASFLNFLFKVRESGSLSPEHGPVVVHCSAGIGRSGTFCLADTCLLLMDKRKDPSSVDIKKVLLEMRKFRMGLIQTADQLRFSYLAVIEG
# Protocol: PTP-1B enzymatic activity of samples was assayed in microtiter plates as follows. The protein concentration of the PTP-1B enzyme preparation was determined using the Bio-Rad Protein Assay kit (Bio-Rad, Hercules Calif.). […] Reactions were mixed gently and incubated at 37° C. for 60 minutes. Enzymatic cleavage of phosphate from pNPP (a tyrosine phosphate analog) is marked by a colorimetric change in this substrate. See, e.g., Imbert et al., Biochem J., 297:163-173 (1994); Ghosh and Miller, Biochem. Biophys. Res. […] Zanke et al., Eur. J. […] To determine the enzymatic activity, absorbance readings of the reactions were measured at 405 nm using a Molecular Devices Thermomax Plate Reader (Menlo Park Calif.). […] Purified phosphatase was added to the reaction mixtures to begin the reactions; the reactions were incubated at 37° C. for 60 min. […] (for PTP-1C and PTPα assays), stopped, and colorimetrically analyzed as described above. […] First, absorbance readings from the negative control reactions were treated as a baseline and subtracted from the absorbance readings of the experimental reactions. Then, for each reaction, a percent inhibition was calculated using the following formula: […] For each inhibitor compound tested, an IC50 concentration was calculated from a best-fit computer analysis of the calculated percent inhibition for the various dilutions of the compound. PTP-1B enzymatic activity of samples was assayed in microtiter plates as follows. The protein concentration of the PTP-1B enzyme preparation was determined using the Bio-Rad Protein Assay kit (Bio-Rad, Hercules Calif.). […] Reactions were mixed gently and incubated at 37° C. for 60 minutes. Enzymatic cleavage of phosphate from pNPP (a tyrosine phosphate analog) is marked by a colorimetric change in this substrate. See, e.g., Imbert et al., Biochem J., 297:163-173 (1994); Ghosh and Miller, Biochem. Biophys. Res. […] Zanke et al., Eur. […] To determine the enzymatic activity, absorbance readings of the reactions were measured at 405 nm using a Molecular Devices Thermomax Plate Reader (Menlo Park Calif.). […] Purified phosphatase was added to the reaction mixtures to begin the reactions; the reactions were incubated at 37° C. for 60 min. […] (for PTP-1C and PTPα assays), stopped, and calorimetrically analyzed as described above. […] First, absorbance readings from the negative control reactions were treated as a baseline and subtracted from the absorbance readings of the experimental reactions. Then, for each reaction, a percent inhibition was calculated using the following formula: […] For each inhibitor compound tested, an IC50 concentration was calculated from a best-fit computer analysis of the calculated percent inhibition for the various dilutions of the compound.
SMILES,IC50 (CD45),IC50 (PTP-1B)
CCCCCCCCNC(=O)/C=C/c1ccc(C(=O)C(=O)c2ccc(/C=C/C(=O)O)cc2)cc1 [Compound 13],,31000 nM
COc1ccc(C(=O)OC(c2ccc(/C=C/C(=O)O)cc2)C(O)c2ccc(/C=C/C(=O)O)cc2)cc1 (stereo not shown) [Compound 25],,890 nM
COC(=O)CCCCC(=O)OC(c1ccc(/C=C/C(=O)O)cc1)C(O)c1ccc(/C=C/C(=O)O)cc1 (stereo not shown) [Compound 29],,800 nM
CCCCCCC(OC(=O)c1ccc(/C=C/C(=O)O)cc1)C(=O)NCC(=O)OCC (stereo not shown) [Compound 32],,1800 nM
O=C(O)/C=C/c1ccc(-c2nc(-c3ccc(C(=O)O)cc3)[nH]c2-c2ccc(/C=C/C(=O)O)cc2)cc1 [Compound 54],730 nM,72 nM
O=C(O)/C=C/c1ccc(-c2nc(-c3cccc(F)c3)[nH]c2-c2ccc(/C=C/C(=O)O)cc2)cc1 [Compound 61],955 nM,970 nM
O=C(O)/C=C/c1ccc(-c2nc(-c3ccc4ccccc4n3)[nH]c2-c2ccc(/C=C/C(=O)O)cc2)cc1 [Compound 63],2400 nM,1700 nM
COC(=O)c1ccc2cc(-c3nc(-c4ccc(/C=C/C(=O)O)cc4)c(-c4ccc(/C=C/C(=O)O)cc4)[nH]3)[nH]c2c1 [Compound 64],6400 nM,3000 nM
O=C(O)/C=C/c1ccc(-c2nc(-c3cc(F)cc(F)c3)[nH]c2-c2ccc(/C=C/C(=O)O)cc2)cc1 [Compound 65],1400 nM,1300 nM
O=C(O)/C=C/c1ccc(-c2nc(-c3ccc(F)c(F)c3)[nH]c2-c2ccc(/C=C/C(=O)O)cc2)cc1 [Compound 66],2500 nM,1700 nM
O=C(O)/C=C/c1ccc(-c2nc(-c3cccc(F)c3F)[nH]c2-c2ccc(/C=C/C(=O)O)cc2)cc1 [Compound 67],1250 nM,1000 nM
Cn1cc(-c2nc(-c3ccc(/C=C/C(=O)O)cc3)c(-c3ccc(/C=C/C(=O)O)cc3)[nH]2)c2ccccc21 [Compound 74],4200 nM,640 nM
O=C(O)/C=C/c1ccc(-c2nc(-c3ccccc3)[nH]c2-c2ccc(/C=C/C(=O)O)cc2)cc1 [Compound 75],3400 nM,680 nM
CCCCNC(=O)C(OC(=O)c1ccc(/C=C/C(=O)O)cc1)C(=O)c1ccc(F)cc1 (stereo not shown) [Compound 144],,3000 nM
CCCCNC(=O)c1oc(-c2ccc(/C=C/C(=O)O)cc2)nc1-c1ccc(F)cc1 [Compound 148],,9000 nM
COc1ccc(C(=O)OC(c2ccc(/C=C/C(=O)O)cc2)C(OC(=O)c2ccc(OC)cc2)c2ccc(/C=C/C(=O)O)cc2)cc1 (stereo not shown) [Compound 162],,1800 nM
COc1ccc(-c2nc(-c3ccc(/C=C/C(=O)O)cc3)c(-c3ccc(/C=C/C(=O)O)cc3)s2)cc1 [Compound 168],,3000 nM

# Continued, values first:
IC50 (CD45),IC50 (PTP-1B),SMILES
3900 nM,370 nM,O=C(O)/C=C/c1ccc(C(=O)C(=O)c2ccc(/C=C/C(=O)O)cc2)cc1 [Compound 9]
,270 nM,O=C(O)/C=C/c1ccc(C(O)C(O)c2ccc(/C=C/C(=O)O)cc2)cc1 (stereo not shown) [Compound 23]
,500 nM,COc1ccc(C(=O)OC(C(=O)c2ccc(/C=C/C(=O)O)cc2)c2ccc(/C=C/C(=O)O)cc2)cc1 (stereo not shown) [Compound 27]
560 nM,100 nM,O=C(O)/C=C/c1ccc(-c2nc[nH]c2-c2ccc(/C=C/C(=O)O)cc2)cc1 [Compound 55]
1000 nM,250 nM,O=C(O)/C=C/c1ccc(-c2nc(-c3ccccc3[N+](=O)[O-])[nH]c2-c2ccc(/C=C/C(=O)O)cc2)cc1 [Compound 57]
970 nM,250 nM,COc1ccc(-c2nc(-c3ccc(/C=C/C(=O)O)cc3)c(-c3ccc(/C=C/C(=O)O)cc3)[nH]2)cc1 [Compound 58]
350 nM,250 nM,COc1cccc(-c2nc(-c3ccc(/C=C/C(=O)O)cc3)c(-c3ccc(/C=C/C(=O)O)cc3)[nH]2)c1[N+](=O)[O-] [Compound 59]
1000 nM,290 nM,O=C(O)/C=C/c1ccc(-c2nc(-c3ccco3)[nH]c2-c2ccc(/C=C/C(=O)O)cc2)cc1 [Compound 60]
865 nM,300 nM,CCN(CC)c1ccc(-c2nc(-c3ccc(/C=C/C(=O)O)cc3)c(-c3ccc(/C=C/C(=O)O)cc3)[nH]2)cc1 [Compound 68]
1900 nM,410 nM,COc1cccc(-c2nc(-c3ccc(/C=C/C(=O)O)cc3)c(-c3ccc(/C=C/C(=O)O)cc3)[nH]2)c1O [Compound 69]
1900 nM,420 nM,O=C(O)/C=C/c1ccc(-c2nc(-c3cccs3)[nH]c2-c2ccc(/C=C/C(=O)O)cc2)cc1 [Compound 70]
530 nM,430 nM,O=C(O)/C=C/c1ccc(-c2nc(-c3ccc4c(c3)OCCO4)[nH]c2-c2ccc(/C=C/C(=O)O)cc2)cc1 [Compound 71]
5500 nM,520 nM,COc1cc(OC)c(OC)c(-c2nc(-c3ccc(/C=C/C(=O)O)cc3)c(-c3ccc(/C=C/C(=O)O)cc3)[nH]2)c1 [Compound 72]
2800 nM,620 nM,N#Cc1ccc(-c2nc(-c3ccc(/C=C/C(=O)O)cc3)c(-c3ccc(/C=C/C(=O)O)cc3)[nH]2)cc1 [Compound 73]
